Source: patent US20230157952A1, “METHOD FOR IMPROVING THE STABILITY OF A PHARMACEUTICAL COMPOSITION COMPRISING A HIGH PENETRATION DRUG, AND THE PHARMACEUTICAL COMPOSITION OBTAINED THEREFROM” (Techfields Inc., priority 2020, published 2023)

Assay: Effect of concentration on the stability of the solution (purity over time)
Conditions: for Stability of common ester over the concentrations tested: 0.01% to 10% (or higher) in 50% ethanol at 25° C.; for Purity (%) at Day 3 / Purity (%) at Day 7 / Purity (%) at hr 0 / Purity (%) at hr 24 / Purity(%) at Day 14 / Purity(%) at Day 28 / Purity(%) at Day 21: 25° C.

## CCN(CC)CCOC(=O)CCCc1ccc(N(CCS(C)(=O)=O)CCS(C)(=O)=O)cc1.Cl [2-(diethylamino)ethyl 4-[bis(2-methylsulfonylethyl)amino]benzenebutyrate.HCl]
In water at 25° C.
  Stability when the concentration is 0.1% or lower: not stable

## CCOC(=O)c1ccccc1 [Ethyl benzoate, reference compound]
  Stability of common ester over the concentrations tested: very stable
0.01 wt % in 50% ethanol
  Purity (%) at Day 3: 97.4%
  Purity (%) at Day 7: 96.9%
  Purity (%) at hr 0: 97.8%
  Purity (%) at hr 24: 97.6%
  Purity(%) at Day 14: 96.1%
  Purity(%) at Day 28: 95.3%
0.1 wt % in 50% ethanol
  Purity (%) at Day 3: 97.6%
  Purity (%) at Day 7: 97.5%
  Purity (%) at hr 0: 97.9%
  Purity (%) at hr 24: 97.7%
  Purity(%) at Day 14: 97.2%
  Purity(%) at Day 28: 95.9%
1 wt % in 50% ethanol
  Purity (%) at Day 3: 97.7%
  Purity (%) at Day 7: 97.6%
  Purity (%) at hr 0: 98.0%
  Purity (%) at hr 24: 97.8%
  Purity(%) at Day 14: 97.5%
  Purity(%) at Day 28: 97.3%
3 wt % in 50% ethanol
  Purity (%) at Day 3: 97.8%
  Purity (%) at Day 7: 97.7%
  Purity (%) at hr 0: 97.9%
  Purity (%) at hr 24: 97.8%
  Purity(%) at Day 14: 97.6%
  Purity(%) at Day 28: 97.5%
5 wt % in 50% ethanol
  Purity (%) at Day 3: 97.8%
  Purity (%) at Day 7: 97.7%
  Purity (%) at hr 0: 98.0%
  Purity (%) at hr 24: 97.8%
  Purity(%) at Day 14: 97.6%
  Purity(%) at Day 28: 97.6%
10 wt % in 50% ethanol
  Purity (%) at Day 3: 97.8%
  Purity (%) at Day 7: 97.8%
  Purity (%) at hr 0: 97.9%
  Purity (%) at hr 24: 97.8%
  Purity(%) at Day 14: 97.7%
  Purity(%) at Day 28: 97.6%

## CC(C)OC(=O)C(N)Cc1ccccc1 (stereo not drawn) [Isopropyl 2-amino-3-phenylpropanoate, reference compound]
  Stability of common ester over the concentrations tested: quite stable
0.01 wt % in 50% ethanol
  Purity (%) at Day 3: 97.4%
  Purity (%) at Day 7: 97.1%
  Purity (%) at hr 0: 98.4%
  Purity (%) at hr 24: 98.3%
  Purity(%) at Day 14: 96.5%
  Purity(%) at Day 21: 95.9%
  Purity(%) at Day 28: 95.1%
0.1 wt % in 50% ethanol
  Purity (%) at Day 3: 97.6%
  Purity (%) at Day 7: 97.3%
  Purity (%) at hr 0: 98.5%
  Purity (%) at hr 24: 98.4%
  Purity(%) at Day 14: 96.8%
  Purity(%) at Day 21: 96.5%
  Purity(%) at Day 28: 95.7%
1 wt % in 50% ethanol
  Purity (%) at Day 3: 97.9%
  Purity (%) at Day 7: 97.6%
  Purity (%) at hr 0: 98.7%
  Purity (%) at hr 24: 98.5%
  Purity(%) at Day 14: 97.2%
  Purity(%) at Day 21: 96.8%
  Purity(%) at Day 28: 96.1%
3 wt % in 50% ethanol
  Purity (%) at Day 3: 98.2%
  Purity (%) at Day 7: 97.8%
  Purity (%) at hr 0: 98.7%
  Purity (%) at hr 24: 98.6%
  Purity(%) at Day 14: 97.4%
  Purity(%) at Day 21: 97.0%
  Purity(%) at Day 28: 96.5%
5 wt % in 50% ethanol
  Purity (%) at Day 3: 98.5%
  Purity (%) at Day 7: 98.4%
  Purity (%) at hr 0: 98.7%
  Purity (%) at hr 24: 98.6%
  Purity(%) at Day 14: 98.2%
  Purity(%) at Day 21: 97.8%
  Purity(%) at Day 28: 97.1%
10 wt % in 50% ethanol
  Purity (%) at Day 3: 98.6%
  Purity (%) at Day 7: 98.5%
  Purity (%) at hr 0: 98.8%
  Purity (%) at hr 24: 98.7%
  Purity(%) at Day 14: 98.3%
  Purity(%) at Day 21: 97.9%
  Purity(%) at Day 28: 97.3%
